# Source: patent US6867305B2, “Synthesis of epothilones, intermediates thereto and analogues thereof” (Sloan-Kettering Institute for Cancer Research, priority 1996, dated 2005)
# pIC50: −log10 of the molar value. Several values for one entry are separate records, joined by “and”; a condition that tells them apart may be missing. Equal values may be shown once. Read-outs that look alike come from different tables or passages of the source.
# Tests used:
# [1] = system: CCRF-CEM/VBL100 (vinblastine-resistant subline); test: Tumor cell growth inhibition in vitro (XTT, 72 h); type: cell-based, human; conditions: for cross-resistance (fold of resistance vs parent cell line): CCRF-CEM/VBL100 vs CCRF-CEM
# Method: (§1) The fresh medium containing each drug was replenished every 7-14 days. […] In each case ,the drug-exposed cells were resuspended in fresh media for a minimum of 4 days before the experiments for the cell-growth inhibition was carried out.
# (§2) The cells were cultured at an initial density of 2-5×10^4 cells per ml. They were maintained in a 5% CO2-humidified atmosphere at 37° C. in RPMI mediun 1640 (GIBCO/BRL) containing penicillin (100 units/ml), streptomycin (100 μg/ml) (GIBCO/BRL), and 5% heat-inactivated fetal bovine serum. For solid tumor cells growing in a monolayer (such as MCF-7/Adr), cytotoxicitiy of the drug was determined in 96-well microtiter plates by using the sulforhodamine B method as described by Skehan et al (23) for measuring the cellular protein content. For cells that were grown in suspension (such as CCRF-CEM and its sublines), cytotoxicitiy was measured by using the 2,-3-bis(2-methoxy-4-nitro-5-sulfophenyl)-5carboxanilide)-2H terazodium hydroxide (XTT)-microculture tetrazonium method (24) in duplicate in 96-well microtiter plates. For both methods, the absorbance of each well was measured with a microplate reader (EL-340, Bio-Tek, Burlington, Vt.). Each run entailed six or seven concentrations of the tested drugs. Dose-effect relationship data were analyzed with the median-effect plot (25) by using a previously described computer program (26).
# [2] = system: UL-3-C ovarian adenocarcinoma; test: Tumor cell growth inhibition in vitro; type: cell-based, human
# Method: as §1, §2
# [3] = Body-weight decrease and lethality in tumor-bearing nude mice
# Method: (§3) Depending on the tumor type, treatment started on day 10 to day 21 when subcutaneous tumor size reached 35-200 mm^3, except otherwise indicated. Tumor size and body-weight were recorded every other day (Q2D) and, for humane reasons, the animals were sacrificed when tumor size reached ≧10% of body-weight. Each group, including untreated control, consisted of 3-5 animals unless otherwise indicated.
# Essential features of useful cancer therapeutic agent involve not only high efficiency against cancer but also low toxicity toward the host, especially toward vital organs or functions [i.e. wide therapeutic window or high therapeutic index (LD50/ED50)].
# (§4) Human tumor cells (5×10^6) or tumor tissue (30-50 mg) were implanted s.c. flank in nu/nu mice (Charles River Laboratories, Wilmington, Mass.). When tumor grew to a specified size, treatment was started by every-other day×5 with 6 hr i.v.-infusion, unless otherwise indicated. Tumor volume was measured with calipers in three dimensions (length×width×height or width). Body-weight changes and lethality were monitored every other day.
# [4] = system: HCT-116 colon carcinoma xenograft; test: Human tumor xenograft in nude mice; type: in vivo; conditions: for Therapeutic Effect Rank Order: HCT-116, i.v. infusion
# From the text: Therapeutic efficacy of cancer chemotherapeutic agents varies with various factors including the tumor models used and the dosage of drug and schedules and routes of administration. […] In the present studies, we intended to compare the therapeutic effects of drugs near their maximal tolerated doses by measuring the extent of body-weight decreases and/or lethality.
# as §3
# Athymic nude mice bearing the nu/nu gene were used for all human tumor xenografts. Outbred, Swiss-background mice were obtained from Charles River Laboratories. Male mice 8 weeks or older weighing 22 g and up were used for most experiments. The drug was administered via the tail vein for 6 hr.-i.v. infusion. Each individual mouse was confined in a perforated Falcon polypropylene tube restrainer for drug administration. Tumor volume was assessed by measuring length×width×height (or width) using a caliper. The programmable Harvard PHD2000 syringe pump (Harvard Apparatus) with multi-track was used for i.v. infusion. […] All animal studies were conducted in accordance with the guidelines of the National Institutes of Health “Guide for the Care and Use of Animals” and the protocol approved by the Memorial Sloan-Kettering Cancer Center's Institutional Animal Care and Use Committee. In keeping with the policy of this committee for the humane treatment of tumor-bearing animals, mice were euthanized when tumors reached ≧10% of their total body weight.
# as §4
# [5] = system: DC-3F/ADII; test: Tumor cell growth inhibition in vitro; type: cell-based, hamster; conditions: for pIC50: DC-3F/ADII; for cross-resistance (fold of resistance vs parent cell line): DC-3F/ADII vs DC-3F
# Method: as §1, §2
# [6] = system: HT-29 human colon adenocarcinoma; test: Tumor cell growth inhibition in vitro; type: cell-based
# Method: as §2, with “They were maintained in a 5% CO2-humidified atmosphere at 37° C. in RPMI mediun 1640 (GIBCO/BRL) containing penicillin (100 units/ml), streptomycin (100 μg/ml) (GIBCO/BRL), and 5% heat-inactivated fetal bovine serum.” left out
# [7] = system: SK-OV-3 human ovary adenocarcinoma; test: Tumor cell growth inhibition in vitro; type: cell-based
# Method: as §2, with “They were maintained in a 5% CO2-humidified atmosphere at 37° C. in RPMI mediun 1640 (GIBCO/BRL) containing penicillin (100 units/ml), streptomycin (100 μg/ml) (GIBCO/BRL), and 5% heat-inactivated fetal bovine serum.” left out
# [8] = system: K562 human chronic myeloblastic leukemia; test: Tumor cell growth inhibition in vitro; type: cell-based
# Method: as §2, with “They were maintained in a 5% CO2-humidified atmosphere at 37° C. in RPMI mediun 1640 (GIBCO/BRL) containing penicillin (100 units/ml), streptomycin (100 μg/ml) (GIBCO/BRL), and 5% heat-inactivated fetal bovine serum.” left out
# [9] = system: HL-60 human promyelocytic leukemia; test: Tumor cell growth inhibition in vitro; type: cell-based
# Method: as §2, with “They were maintained in a 5% CO2-humidified atmosphere at 37° C. in RPMI mediun 1640 (GIBCO/BRL) containing penicillin (100 units/ml), streptomycin (100 μg/ml) (GIBCO/BRL), and 5% heat-inactivated fetal bovine serum.” left out
# [10] = system: MCF-7 human mammary adenocarcinoma; test: Tumor cell growth inhibition in vitro; type: cell-based
# Method: as §2, with “They were maintained in a 5% CO2-humidified atmosphere at 37° C. in RPMI mediun 1640 (GIBCO/BRL) containing penicillin (100 units/ml), streptomycin (100 μg/ml) (GIBCO/BRL), and 5% heat-inactivated fetal bovine serum.” left out
# [11] = system: MX-1 human mammary carcinoma; test: Tumor cell growth inhibition in vitro; type: cell-based; conditions: Homo sapiens, MX1
# Method: as §2, with “They were maintained in a 5% CO2-humidified atmosphere at 37° C. in RPMI mediun 1640 (GIBCO/BRL) containing penicillin (100 units/ml), streptomycin (100 μg/ml) (GIBCO/BRL), and 5% heat-inactivated fetal bovine serum.” left out
# [12] = system: PC-3 human prostate adenocarcinoma; test: Tumor cell growth inhibition in vitro; type: cell-based
# Method: as §2, with “They were maintained in a 5% CO2-humidified atmosphere at 37° C. in RPMI mediun 1640 (GIBCO/BRL) containing penicillin (100 units/ml), streptomycin (100 μg/ml) (GIBCO/BRL), and 5% heat-inactivated fetal bovine serum.” left out
# [13] = system: CCRF-CEM/VM1 (teniposide-resistant subline); test: Tumor cell growth inhibition in vitro (XTT, 72 h); type: cell-based, human; conditions: for cross-resistance (fold of resistance vs parent cell line): CCRF-CEM/VM1 vs CCRF-CEM; for pIC50: Homo sapiens
# Method: as §1, §2
# [14] = system: CCRF-CEM/Taxol (paclitaxel-resistant subline); test: Tumor cell growth inhibition in vitro (XTT, 72 h); type: cell-based, human; conditions: for cross-resistance (fold of resistance vs parent cell line): CCRF-CEM/Taxol vs CCRF-CEM; for pIC50: Homo sapiens, CCRF-CEM, 72 h
# Method: as §1, §2
# [15] = system: MCF-7/Adr; test: Tumor cell growth inhibition in vitro; type: cell-based, human; conditions: for pIC50: MCF-7/Adr; for cross-resistance (fold of resistance vs parent cell line): MCF-7/Adr vs MCF-7
# Method: as §2, with “They were maintained in a 5% CO2-humidified atmosphere at 37° C. in RPMI mediun 1640 (GIBCO/BRL) containing penicillin (100 units/ml), streptomycin (100 μg/ml) (GIBCO/BRL), and 5% heat-inactivated fetal bovine serum.” left out
# [16] = HCT-116, dEpoB 30 mg/kg, Taxol 20 mg/kg, Q2Dx51x3, 6-hr i.v. infusion
# [17] = Homo sapiens, MCF7, MCF-7, read-out: IC50
# [18] = Homo sapiens, K562, K562, read-out: IC50
SMILES,"Tumor Disappearance [4, 16]",pIC50 [5],pIC50 [6],pIC50 [7],pIC50 [9],"pIC50 [10, 17]",pIC50 [11],pIC50 [12],cross-resistance (fold of resistance vs parent cell line) [13] [x],cross-resistance (fold of resistance vs parent cell line) [14],cross-resistance (fold of resistance vs parent cell line) [1] [x],cross-resistance (fold of resistance vs parent cell line) [15],"pIC50 ([2]; Homo sapiens, read-out: IC50)","pIC50 ([13]; CCRF-CEM, 72 h)",pIC50 [14],"pIC50 ([1]; Homo sapiens, CCRF-CEM, 72 h)","pIC50 ([15]; Homo sapiens, NCI/ADR-RES)",pIC50 [15],drop in body-weight during treatment without causing lethality ([3]; nude mice),Therapeutic Effect Rank Order [4],other results
"CC(=O)O[C@H]1C(=O)[C@@]2(C)[C@H]([C@H](OC(=O)c3ccccc3)[C@]3(O)C[C@H](OC(=O)[C@H](O)[C@@H](NC(=O)c4ccccc4)c4ccccc4)C(C)=C1C3(C)C)[C@]1(OC(C)=O)CO[C@@H]1C[C@@H]2O [Taxol, paclitaxel, reference compound]",3/3,4.69,8.80,8.42,8.96,8.62,7.40,7.55,,,,,,,,,,,,,"pIC50 ([1]; CCRF-CEM/VBL100, 72 h): 5.29; pIC50 [2]: 8.82; pIC50 ([2]; Homo sapiens): 8.80; body-weight decrease without lethality at the doses used ([3]; mouse, in vivo): 10-20%; pIC50 ([5]; listed as Paclitaxel): 6.23; pIC50 ([8]; Homo sapiens, K562, read-out: IC50): 8.54"
"C/C(=C\c1csc(C)n1)C1C[C@@H]2O[C@]2(C)CCC[C@H](C)[C@H](O)[C@@H](C)C(=O)C(C)(C)C(O)CC(=O)N1 (stereo partly drawn) [aza-EpoB, aza-epothilone B]",,,8.49,7.80,8.60,8.37,8.62,7.38,18.6,81.4 x,1423,2.7 x,8.92,,,,,,,,"cross-resistance (fold of resistance vs parent cell line) ([13]; listed as 15-aza-EpoB): 118.6 x; pIC50 ([13]; CCRF-CEM/VM1, 72 h, read-out: IC50): 7.41; pIC50 ([14]; read-out: IC50): 6.77; pIC50 ([1]; Homo sapiens, CCRF-CEM/VBL100, 72 h, read-out: IC50): 5.52; pIC50 ([15]; Homo sapiens, NCI/ADR-RES, read-out: IC50): 7.93; drop in body-weight that led to lethality ([3]; nude mice): 14-20%; cross-resistance (fold of resistance vs parent cell line) [5]: 274 x; cross-resistance (fold of resistance vs parent cell line) ([5]; listed as 15-aza-EpoB): 33.1 x; pIC50 ([5]; listed as 15-aza-EpoB, read-out: IC50): 6.54; pIC50 ([5]; read-out: IC50): 5.62; pIC50 ([8]; K562, listed as 15-aza-EpoB, read-out: IC50): 7.22; pIC50 ([8]; K562, read-out: IC50): 8.40"
"C/C1=C/C[C@@H](/C(C)=C/c2csc(C)n2)OC(=O)C[C@H](O)C(C)(C)C(=O)[C@H](C)[C@@H](O)[C@@H](C)CCC1 [dEpoB, 12,13-desoxyepothilone B]",1/2,,8.32,8.46,8.51,8.40,7.66,7.68,1.5,1.7 x and 1.2 x,,,8.68,7.85,7.79,7.77,8.15,7.88,23-29%,"Taxol, CPT-11≈dEpoB, dEpoF","body-weight decrease without lethality at the doses used ([3]; dEpoB 30-40 mg/kg, paclitaxel 15-24 mg/kg, 6-hr i.v. infusion): 10-20%; Lowest Average Tumor Size (T/C) [4, 16]: 0; pIC50 [8, 18]: 8.44; pIC50 ([8]; K562): 8.16; pIC50 ([10]; MCF-7): 8.42"
"C/C1=C/C[C@@H](/C(C)=C/c2csc(CO)n2)OC(=O)C[C@H](O)C(C)(C)C(=O)[C@H](C)[C@@H](O)[C@@H](C)CCC1 [dEpoF, 12,13-Desoxyepothilone F]",,7.74,8.85,8.29,9.15,8.16,8.38,7.92,1.8,2.0 x,17.4,1.4 x and 1.9 x,8.32,8.31,8.28,7.33,8.01,7.73,23-29%,"Taxol, CPT-11≈dEpoB, dEpoF","pIC50 ([5]; Mesocricetus auratus, DC3F): 7.65; pIC50 [8, 18]: 8.68; pIC50 ([10]; MCF-7): 8.00"
